Experimental data published in patent US6303578A, “Mu-opiate receptor peptides” (Administrators of the Tulane Educational Fund, priority 1999, dated 2001).
Values joined by “and” are separate entries in the source; they are usually repeats but may differ in a detail not shown here. Equal entries are not always repeated. Where two headings read alike, the source gives them in different places. Bridge positions count the residues as written; N and C are the ends. Square brackets hold non-standard residues; d marks the D form. Peptide text beside a SMILES is read from it. dOrn = NCCC[C@@H](N)C(=O)O

Tests used:
mice [1] = conditions: it injection
mice [2] = test system: mice
guinea pig ileum [3] = assay type: cell-based
Text: […]. […] […]

κ receptors = κ receptors (Homo sapiens, UniProt P41145); conditions: cited from earlier work; for Ki: values obtained from (7) or (20), read-out: Receptor Binding Ki κ
Chain of κ receptors (P41145 whole entry): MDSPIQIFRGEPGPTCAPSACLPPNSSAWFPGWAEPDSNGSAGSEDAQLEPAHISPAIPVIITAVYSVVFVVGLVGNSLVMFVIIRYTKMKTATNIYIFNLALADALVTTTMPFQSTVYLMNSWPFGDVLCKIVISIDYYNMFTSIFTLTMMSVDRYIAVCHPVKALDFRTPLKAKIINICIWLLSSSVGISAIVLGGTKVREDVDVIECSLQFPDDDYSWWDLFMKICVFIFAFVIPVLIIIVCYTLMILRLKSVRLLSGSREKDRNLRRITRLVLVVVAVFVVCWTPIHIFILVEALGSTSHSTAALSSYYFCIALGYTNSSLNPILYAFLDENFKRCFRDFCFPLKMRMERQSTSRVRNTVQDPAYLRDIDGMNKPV

mice [4] = conditions: from reference (24); cited from earlier work
μ receptors [5] = target: T1, μ receptors (Homo sapiens, UniProt P35372); test: Binding to μ opiate receptors by inhibition of [3H]-DAMGO
T1 sequence (P35372 whole entry): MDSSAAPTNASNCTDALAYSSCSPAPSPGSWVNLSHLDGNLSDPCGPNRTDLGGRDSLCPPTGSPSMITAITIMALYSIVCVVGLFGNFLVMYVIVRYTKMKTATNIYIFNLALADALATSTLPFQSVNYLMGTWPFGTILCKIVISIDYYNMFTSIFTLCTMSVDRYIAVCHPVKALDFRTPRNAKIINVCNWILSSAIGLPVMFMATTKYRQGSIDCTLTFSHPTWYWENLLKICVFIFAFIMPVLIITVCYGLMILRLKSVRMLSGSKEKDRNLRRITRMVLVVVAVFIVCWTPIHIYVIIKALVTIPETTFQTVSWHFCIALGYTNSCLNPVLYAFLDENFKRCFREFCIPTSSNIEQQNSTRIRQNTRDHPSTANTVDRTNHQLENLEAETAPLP
Protocol: (§1) The relative affinity and selectivity for the μ receptor over the δ and κ receptors of the synthesized peptides were tested and compared.

mice [6] = test: Analgesia in mice after IV injection; assay type: in vivo
δ receptors [7] = target: T2, δ receptors (Homo sapiens, UniProt P41143); conditions: cited from earlier work
T2 sequence (P41143 whole entry): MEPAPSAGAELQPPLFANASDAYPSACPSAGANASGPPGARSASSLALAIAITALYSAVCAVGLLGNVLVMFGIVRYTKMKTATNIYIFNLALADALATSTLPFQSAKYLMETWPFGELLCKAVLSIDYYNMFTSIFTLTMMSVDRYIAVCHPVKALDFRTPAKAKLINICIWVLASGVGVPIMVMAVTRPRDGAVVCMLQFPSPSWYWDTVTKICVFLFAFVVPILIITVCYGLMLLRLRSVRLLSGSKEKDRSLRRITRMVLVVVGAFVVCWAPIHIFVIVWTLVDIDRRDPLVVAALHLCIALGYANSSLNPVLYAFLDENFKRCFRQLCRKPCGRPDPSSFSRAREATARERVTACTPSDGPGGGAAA

μ receptors [8] = target: T1, μ receptors; conditions: values obtained from (7) or (20); read-out: Receptor Binding Ki μ; cited from earlier work
δ receptors [9] = target: T2, δ receptors; test: Binding to δ opiate receptors by inhibition of 3H-pCl-DPDPE; conditions: FIG. 1 set of 20 pin-synthesized peptides
Protocol: as §1

guinea pig ileum [10] = conditions: for overall agonist character: conclusion of Example 7
[11] = mean±SEM, read-out: IC50 inhibiting electrically-induced contractions of the guinea pig ileum
[12] = methods of Example 3, route not given
[13] = untreated guinea pig ileum, read-out: agonist activity IC50 in the untreated ileum

For `NC(=O)[C@H](Cc1ccccc1)NC(=O)[C@H](Cc1c[nH]c2ccccc12)NC(=O)[C@@H]1CCCN1C(=O)[C@@H](N)Cc1ccc(O)cc1` [SEQ ID NO:1, H-Tyr-Pro-Trp-Phe-NH2], the ED50 analgesia (mice [1]) was 0.8 µg, the “animals still analgesic 1 hr after injection” value (mice [2]; mice, 10-20 μg of the peptide, 1 hr) was “About half” and the “effect of antagonists on analgesia induced by 10 μg of the peptide” value (mice [2]; naloxone 1 mg/kg sc, β-funaltrexamine 40 mg/kg 24 h pretreatment) was “reversed”. For the same compound, the IC50 (guinea pig ileum [3]; [11]) was 0.0036 ± 0.0003 µM and the “effect of antagonists on the peptide's effect in guinea pig ileum” value (guinea pig ileum [3]; naloxone 0.5 μM and CTOP 0.5 μM, applied 1 min before or after, not by nor-binaltorphimine 20 nM) was “blocked and reversed”.
In the case of `CSCC[C@H](NC(=O)[C@H](Cc1ccccc1)NC(=O)CNC(=O)CNC(=O)[C@@H](N)Cc1ccc(O)cc1)C(=O)O` [Met-Enkephalin], the Ki (κ receptors) is listed as 4.44 µM, the ED50 analgesia (mice [4]) is listed as 75 µg and the “duration of analgesic effects” value (mice [4]) is listed as “less than 10 min”.
For `N[C@@H](Cc1ccc(O)cc1)C(=O)N[C@@H]1CCCCNC(=O)[C@H](Cc2ccccc2)NC(=O)[C@H](Cc2c[nH]c3ccccc23)NC1=O` [SEQ ID NO:13, H-Tyr-c-[D-Lys-Trp-Phe]] (H-Y[dK]WF; lactam 2-C), the “μ receptor affinity higher than the peptide of SEQ ID NO:1” value (μ receptors [5]) was “about 15 fold”, the ED50 analgesia (mice [6]) was 0.16 µmol/kg and the “analgesic potency IC50” value (mice [2]; [12]) was 0.3 µg. The “analgesic potency greater than SEQ ID NO:1” value (mice [2]; [12]) was “about 10 fold”, the “IC50 in the guinea pig ileum assay (in words)” value (guinea pig ileum [3]) was “subnanomolar” and the “potency in the guinea pig ileum assay greater than SEQ ID NO:1” value (guinea pig ileum [3]) was “about 4 fold”.
In the case of `NC(=O)CNC(=O)[C@H](Cc1c[nH]c2ccccc12)NC(=O)[C@@H]1CCCN1C(=O)[C@@H](N)Cc1ccc(O)cc1` [Tyr-W-MIF-1, Tyr-Pro-Trp-Gly-NH2] (H-YPWG-NH2), the “selectivity for μ over δ receptors” value (δ receptors [7]; background, reference (7)) is listed as over 200 fold, the Ki (δ receptors [7]; values obtained from (7) or (20), read-out: Receptor Binding Ki δ) is listed as 15.5 µM and the “Binding Selectivity δ/μ” value (δ receptors [7]; values obtained from (7)) is listed as 219. For the same compound, the Ki (μ receptors [5]) was 0.085 µM, the Ki (μ receptors [8]) was 0.0709 µM and 0.07 µM and the “selectivity for μ over δ receptors (δ Ki/μ Ki)” value (δ receptors [9]) was 240 fold. For the same compound, the “selectivity for μ over κ receptors” value (κ receptors; background, reference (7)) was over 300 fold, the Ki (κ receptors) was 22.3 µM and the “Binding Selectivity κ/μ” value (κ receptors; values obtained from (7)) was 314.
In the case of `NC(=O)[C@H](Cc1ccccc1)NC(=O)[C@H](Cc1ccccc1)NC(=O)[C@@H]1CCCN1C(=O)[C@@H](N)Cc1ccc(O)cc1` [SEQ ID NO:2, H-Tyr-Pro-Phe-Phe-NH2], the ED50 analgesia (mice [2]; mice, icv injection) is reported as 8.4 µg and the IC50 (guinea pig ileum [3]; [11]) is reported as 0.004 ± 0.0004 µM.
`CN1CC[C@]23c4c5ccc(O)c4O[C@H]2[C@@H](O)C=C[C@H]3[C@H]1C5` [morphine, reference compound] gave an ED50 (mice [6]; Mus musculus) of 0.3 µmol/kg.
With `C[C@@H](NC(=O)[C@@H](N)Cc1ccc(O)cc1)C(=O)NCC(=O)N(C)[C@@H](Cc1ccccc1)C(=O)NCCO` [DAMGO, reference compound] the “inhibition of electrically-induced contractions” value (guinea pig ileum [10]; 0.3 μM DAMGO, ileum treated with 20 nM B-CNA) was 40% and the IC50 (guinea pig ileum [3]; [11]) was 0.0068 ± 0.0008 µM.
In the case of `N[C@@H](Cc1ccc(O)cc1)C(=O)N1CCC[C@H]1C(=O)N[C@@H](Cc1c[nH]c2ccccc12)C(=O)N[C@@H](Cc1ccccc1)C(=O)O` [SEQ ID NO:3, H-Tyr-Pro-Trp-Phe-OH], the “activity after treatment with 20 nM beta-chlornaltrexamine” value (guinea pig ileum [10]; B-CNA treated ileum) is reported as “antagonist activity”, the overall agonist character (guinea pig ileum [10]) is reported as “partial agonist activity” and the “inhibition of contractions by DAMGO after pretreatment with the peptide” value (guinea pig ileum [10]; peptide 20 μM 1 minute before 0.3 μM DAMGO, B-CNA treated ileum) is reported as 25%. The IC50 (guinea pig ileum [3]; [13]) was 5 µM.
With `N[C@@H](Cc1ccc(O)cc1)C(=O)N1CCC[C@H]1C(=O)N[C@@H](Cc1ccccc1)C(=O)N[C@@H](Cc1ccccc1)C(=O)O` [SEQ ID NO:4, H-Tyr-Pro-Phe-Phe-OH] the “activity after treatment with 20 nM beta-chlornaltrexamine” value (guinea pig ileum [10]; B-CNA treated ileum) was “antagonist activity”, the overall agonist character (guinea pig ileum [10]) was “partial agonist activity” and the IC50 (guinea pig ileum [3]; [13]) was 20 µM.
For `N[C@@H](Cc1ccc(O)cc1)C(=O)N[C@@H]1CCCNC(=O)[C@H](Cc2ccccc2)NC(=O)[C@H](Cc2c[nH]c3ccccc23)NC1=O` [SEQ ID NO:15, H-Tyr-c-[D-Orn-Trp-Phe]] (H-Y[dOrn]WF; lactam 2-C), the “μ receptor affinity higher than the peptide of SEQ ID NO:1” value (μ receptors [5]) was “about 4 fold”.
